Results: patent US20070172957A1, “Methods of identifying anti-inflammatory macrolides” (TAISHO PHARMACEUTICAL CO., LTD., priority 2004, published 2007)

How the values were obtained:
[1] = tested on: tobacco smoke-induced pulmonary emphysema; assay: Model mice with tobacco smoke-induced pulmonary emphysema; assay type: in vivo; settings: for pulmonary alveolus size: 6 months, mean ± SE; for pulmonary emphysema rate: relative to non-smoking
Protocol: The model mice with tobacco smoke-induced pulmonary emphysema mimicking human pulmonary emphysema were constructed according to the method as described in Hautamaki, R. D. et al., Science 1997, 277: 2002-2004 or Shapiro, S. D. et al., Am. […] Specifically, C57black/6 female mice of 12-weeks old were exposed to tobacco smoke at two cigarettes per day, 6 days per week for 6 months.
(§1) Administration of clarithromycin was carried out orally at the rate of 25, 50 or 100 […] twice daily (morning and evening) during the tobacco smoke exposure period. The plasma AUC0-8 of clarithromycin obtained when 50 mg/kg was singly administered to the mice was 2.677 μg·hr/ml while the plasma AUC0-8 of clarithromycin obtained when 200 mg of clarithromycin was singly administered to a normal human subject was 8.98 μg·hr/ml. The former concentration was substantially lower than the latter one and was an adequate concentration to be used clinically.
The index of the improvement to the pulmonary emphysema condition followed the mothod as described in Hautamaki, R. D. et al., ibid. or Shapiro, S. D. et al., ibid.
Hematoxylin eosin-stained pathological specimens were prepared from the model mice and ten visual fields under a microscope were randomly selected, where the average sizes of pulmonary alveoli were measured. An increase in the average size of pulmonary alveolus is considered as an index of the destruction of pulmonary alveoli, i.e., the pulmonary emphysema condition.
The cell counts of inflammatory cells (microphages and neutrophiles) in the bronchoalveolar lavage fluids after six months' exposure were measured to provide an index of the inflammatory condition in the model mice with tobacco smoke-induced pulmonary emphysema.
It has been reported that as pulmonary emphysema progresses, pulmonary functions deteriorate. It has also been known that the pulmonary compliance, which is an index of pulmonary functions, increases in model mice with tobacco smoke-induced pulmonary emphysema. Thus, the pulmonary compliance was measured in the model mice with tobacco smoke-induced pulmonary emphysema after six months' exposure.

[2] = Plasma AUC of clarithromycin after single administration to mice; assay type: in vivo; settings: C57black/6, mouse, oral, 50 mg/kg singly administered, read-out: plasma AUC0-8
Protocol: as §1

## CC[C@H]1OC(=O)[C@H](C)[C@@H](O[C@H]2C[C@@](C)(OC)[C@@H](O)[C@H](C)O2)[C@H](C)[C@@H](O[C@@H]2O[C@H](C)C[C@H](N(C)C)[C@H]2O)[C@](C)(OC)C[C@@H](C)C(=O)[C@H](C)[C@@H](O)[C@]1(C)O [clarithromycin]
[1]; after six months' exposure, FIG. 4A
  cell count of macrophages in bronchoalveolar lavage fluids: reduced
[1]; after six months' exposure, FIG. 4B
  cell count of neutrophiles in bronchoalveolar lavage fluids: reduced
[1]; after six months' exposure, FIG. 5
  pulmonary compliance: recovered
[1]; smoking + CAM 25 mg/kg
  improvement factor: 47%
  pulmonary emphysema rate: 10.6%
[1]; smoking + CAM 25 mg/kg orally twice daily
  pulmonary alveolus size: 35.60 ± 1.425 μm
[1]; smoking + CAM 50 mg/kg
  improvement factor: up to 87%
  pulmonary emphysema rate: 3%
[1]; smoking + CAM 50 mg/kg orally twice daily
  pulmonary alveolus size: 33.16 ± 0.890 μm
[1]; smoking + CAM 50 mg/kg, listed as CAM
  improvement factor: 85%
[1]; smoking + CAM 100 mg/kg
  improvement factor: 66.5%
  pulmonary emphysema rate: 6.7%
[1]; smoking + CAM 100 mg/kg orally twice daily
  pulmonary alveolus size: 34.35 ± 0.936 μm
[2]
  AUC(0-t): 2680 ng·h/mL
